Test: Cytotoxicity against human HL60 cells after 48 hrs by MTT assay
Format: functional, cell-based
Conditions: HL-60, 48 h

C[C@@H](C(=O)O)c1c([C@@]2(C)CCCC(C)(C)C2)ccc2c1CN(CCc1ccccc1)C2=O showed an IC50 greater than 10 µM.
Molecule CC(C)CN1Cc2c(ccc([C@@]3(C)CCCC(C)(C)C3)c2[C@@H](C)C(=O)O)C1=O has an IC50 greater than 10 µM.
With C[C@@H](C(=O)O)c1c([C@@]2(C)CCCC(C)(C)C2)ccc2c1CN(CC(=O)O)C2=O the IC50 was greater than 10 µM.
Work on C[C@@H](C(=O)O)c1c([C@@]2(C)CCCC(C)(C)C2)ccc2c1C(=O)N(CC(=O)O)C2 yielded an IC50 greater than 10 µM.
C[C@@H](C(=O)O)c1c([C@@]2(C)CCCC(C)(C)C2)ccc2c1CN(CCc1cnc[nH]1)C2=O gave an IC50 greater than 10 µM.
COC(=O)CN1Cc2c(ccc([C@@]3(C)CCCC(C)(C)C3)c2[C@@H](C)C(=O)O)C1=O showed an IC50 greater than 10 µM.
With CCC(C)CN1Cc2c(ccc([C@@]3(C)CCCC(C)(C)C3)c2[C@@H](C)C(=O)O)C1=O (some centres undefined) the IC50 was greater than 10 µM.
With CC(C)CCN1Cc2c(ccc([C@@]3(C)CCCC(C)(C)C3)c2[C@@H](C)C(=O)O)C1=O the IC50 was greater than 10 µM.
C[C@@H](C(=O)O)c1c([C@@]2(C)CCCC(C)(C)C2)ccc2c1CN(CCN)C2=O gave an IC50 greater than 10 µM.
